Consider 25 molecules from patent US5760048A, “Alpha-mercaptoacrylic acid derivatives having calpain inhibitory activity” (Warner-Lambert Company, priority 1996, dated 1998).

Where two headings read alike, the source gives them in different places.

The target in assay [1] is T1, calpain I (Homo sapiens, UniProt P07384).
T1 sequence (P07384 1-714): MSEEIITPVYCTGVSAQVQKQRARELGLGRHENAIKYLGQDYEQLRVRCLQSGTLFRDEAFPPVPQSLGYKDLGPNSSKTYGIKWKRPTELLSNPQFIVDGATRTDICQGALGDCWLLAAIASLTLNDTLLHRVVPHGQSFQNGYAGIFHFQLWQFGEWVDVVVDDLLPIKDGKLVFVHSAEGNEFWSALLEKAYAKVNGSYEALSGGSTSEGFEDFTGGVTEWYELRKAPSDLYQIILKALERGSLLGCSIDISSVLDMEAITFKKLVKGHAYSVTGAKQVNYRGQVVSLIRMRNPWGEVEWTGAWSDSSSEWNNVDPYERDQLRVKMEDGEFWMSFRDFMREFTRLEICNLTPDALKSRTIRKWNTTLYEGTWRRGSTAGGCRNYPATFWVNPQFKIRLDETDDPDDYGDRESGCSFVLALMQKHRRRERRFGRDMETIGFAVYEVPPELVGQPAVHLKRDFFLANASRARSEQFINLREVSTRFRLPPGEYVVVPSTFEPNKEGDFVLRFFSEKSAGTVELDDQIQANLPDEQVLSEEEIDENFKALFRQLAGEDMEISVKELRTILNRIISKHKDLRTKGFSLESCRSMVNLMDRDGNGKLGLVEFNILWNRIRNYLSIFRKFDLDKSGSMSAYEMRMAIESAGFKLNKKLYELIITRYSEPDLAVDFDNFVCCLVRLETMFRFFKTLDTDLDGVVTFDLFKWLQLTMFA
T1 sequence (P04632 1-268 partner): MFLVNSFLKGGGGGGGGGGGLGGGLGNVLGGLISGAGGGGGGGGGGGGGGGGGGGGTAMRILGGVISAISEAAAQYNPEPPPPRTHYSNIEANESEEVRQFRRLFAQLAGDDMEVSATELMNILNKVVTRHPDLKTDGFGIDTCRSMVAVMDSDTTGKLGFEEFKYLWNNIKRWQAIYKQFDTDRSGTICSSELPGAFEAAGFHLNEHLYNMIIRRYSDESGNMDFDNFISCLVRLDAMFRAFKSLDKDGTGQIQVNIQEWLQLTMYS
Briefly: Assay of Calpain Activity (casein substrate, microplate, Coomassie blue). In kind it is biochemical. Also noted: Calpain I was purified from human erythrocytes; from tissue; host or cells: human erythrocytes. As for the experimental part: In 250 μL of reaction mixture, substrate casein (0.5 mg/mL) was incubated with 0.01 unit (80-120 ng) calpain I, 20 mM dithiothreitol (DTT), 50 mM Tris-HCl (pH 7.4 at 25° C.), and 4 mM CaCl2 at 25° C. for 60 minutes. Two 100-μL aliquots were taken for Coomassie blue binding analysis to quantify the remaining casein.
Calpain I was assayed as described (α-mercaptoacrylic acid). […] Inhibition of these proteases are presented as IC50.

Assay [2] relates to Fetal rat cortical cell cultures. Briefly: Assay of Lactate Dehydrogenase (LDH): NMDA-induced LDH release. Type of assay: cell-based. As to conditions: FIG. II; for block of NMDA-induced LDH release (in words): 500 μM NMDA, 200 μM calpain inhibiting compound. As for the experimental part: Seventeen-day-old cultures were pretreated with 200 μM calpain inhibiting compound (when added) for 1 hour before treatment of 500 μM N-methyl-D-aspartate (NMDA) for 30 minutes (in the absence or the presence of the compound).

Assay [3] deals with spectrin breakdown in rat cortical cell cultures. As to the kind of experiment: Spectrin Breakdown Measurement (immunoblot). As to conditions: NMDA-treated cortical cells, 4-hour post-NMDA. In kind it is cell-based. As for the experimental part: Rat cortical cell cultures were treated with NMDA in the absence or presence of calpain inhibiting compounds as described in "Assay of LDH" above. At the end of the 4-hour post-NMDA incubation, cells were lysed with 300 μL buffer containing 20 mM Tris-HCL (pH 7.4 at 4° C.), 1% SDS, 5 mM EGTA, 5 mM EDTA, 1 mM DTT, and various protease inhibitors. Total cellular protein was precipitated by 100 μL of 100% trichloroacetic acid. The samples were centrifuged and the pelleted protein solubilized with 50 μl of 3M Tris base. […] The blots were then probed with rabbit antibrain spectrin antibody (primary antibody) followed by alkaline phosphatase-conjugated goat antirabbit immunoglobulin G antibody (secondary antibody). […] The SBP were quantified by densitometry (BioRad Model 620).
Background: A western blot detects proteins with antibodies after separation by electrophoresis.

Assay [4] deals with T2, trypsin (Bos taurus, UniProt P00760).
T2 construct: purchased Sigma T8003; host or cells: bovine pancreas
T2 sequence (P00760 24-246): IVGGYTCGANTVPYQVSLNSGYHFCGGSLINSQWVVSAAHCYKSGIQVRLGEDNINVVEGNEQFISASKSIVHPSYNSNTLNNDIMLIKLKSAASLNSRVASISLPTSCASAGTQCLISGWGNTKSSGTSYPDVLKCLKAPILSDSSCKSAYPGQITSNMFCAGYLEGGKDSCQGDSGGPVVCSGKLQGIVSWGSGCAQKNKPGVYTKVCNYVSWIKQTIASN
As to the kind of experiment: Selectivity: trypsin protease assay (casein substrate). Type of assay: biochemical, bovine. As to conditions: Table II; read-out: Inhibitory Activity of Thiol-Acrylates, Trypsin (IC50). As for the experimental part: (§1) Calpain I was assayed as described (α-mercaptoacrylic acid). Ten to 20 ng papain (papaya latex, Sigma, P3125), 1.25 μg trypsin (bovine pancreas, Sigma, T8003), and 5 μg thermolysin (Bacillus thermoproteolyticus, Sigma, P1512) were assayed using 0.5 mg/mL casein as substrate in the microplate format (250 μL reaction volume), essentially as described by Buroker-Kilgore M., Wang K. K. W., Anal Biochem 1993;208:387-392. Inhibition of these proteases are presented as IC50.

For assay [5], the target named is T3, thermolysin (Bacillus thermoproteolyticus, UniProt P00800).
T3 construct: purchased Sigma P1512; host or cells: Bacillus thermoproteolyticus
T3 sequence (P00800 233-548): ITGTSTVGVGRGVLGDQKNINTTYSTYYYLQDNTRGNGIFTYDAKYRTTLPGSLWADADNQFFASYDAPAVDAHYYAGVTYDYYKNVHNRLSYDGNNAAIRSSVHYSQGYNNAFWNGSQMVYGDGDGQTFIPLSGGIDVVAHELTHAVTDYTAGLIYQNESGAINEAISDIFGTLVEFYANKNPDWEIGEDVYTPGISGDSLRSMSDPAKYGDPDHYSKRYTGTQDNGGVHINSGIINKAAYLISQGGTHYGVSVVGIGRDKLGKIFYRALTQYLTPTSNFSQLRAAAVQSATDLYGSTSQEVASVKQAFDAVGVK
As to the kind of experiment: Selectivity: thermolysin protease assay (casein substrate). In kind it is biochemical. As for the experimental part: as §1

Assay [6] concerns the target T4, papain (Carica papaya, UniProt P00784).
T4 construct: purchased Sigma P3125; host or cells: papaya latex
T4 sequence (P00784 134-345): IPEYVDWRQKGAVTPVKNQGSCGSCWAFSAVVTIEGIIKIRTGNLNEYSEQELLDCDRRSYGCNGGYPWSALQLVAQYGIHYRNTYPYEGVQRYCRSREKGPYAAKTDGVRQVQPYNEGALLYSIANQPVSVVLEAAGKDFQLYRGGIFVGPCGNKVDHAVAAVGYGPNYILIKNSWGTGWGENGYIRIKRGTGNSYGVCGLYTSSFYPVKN
As to the kind of experiment: Selectivity: papain protease assay (casein substrate). Type of assay: biochemical. As to conditions: Table II; read-out: Inhibitory Activity of Thiol-Acrylates, Papain (IC50). As for the experimental part: as §1

The mark [7] stands for this setting: Table I, 4 mM CaCl2, pH 7.4, 25° C., 60 minutes, read-out: Inhibitory Activity Against Human Calpain I IC50.
Where [8] appears, read: Table II (selectivity), read-out: Inhibitory Activity of Thiol-Acrylates, Calpain (IC50).

Broadly, the IC50 is the midpoint of a concentration-inhibition curve. On to `O=C(O)/C(S)=C/c1cc2ccccc2c2ccccc12` [Example 27, 3-(9--phenanthyl)-2-mercapto-2-propenoic Acid], for which the IC50 in assay [1] (setting [7]) was 3.1 µM.

Consider `Cc1cc(/C=C(\S)C(=O)O)c(C)n1-c1ccccc1` [Example 38, (Z)-2-Propenoic Acid, 3-(2,5-dimethyl-1-phenyl-1H-pyrrol-3-yl)-2-mercapto], for which the 50% inhibitory concentration (IC50) in assay [1] (setting [7]) was determined as 13.6 µM.

Regarding `O=C(O)/C(S)=C/c1ccsc1` [Example 49, (Z)-2-Propenoic Acid, 3-(3-thienyl)-2-mercapto], the IC50 in assay [1] (setting [7]) turned out to be 7.5 µM.

Consider `O=C(O)/C(S)=C/c1c[nH]c2ccc(F)cc12` [Example 4, 3-(5-fluoro-3-indolyl)-2-mercapto-2-propenoic Acid], for which, in assay [1] (setting [7]), the IC50 turned out to be 0.45 µM.

Regarding `CN[C@H](CC(=O)O)C(=O)O` [NMDA, N-methyl-D-aspartate, reference compound], in assay [2] (500 μM NMDA 30 minutes, additional 4 hours), the “LDH release from the cells” value was “about 210 unit/mL”.

For the molecule `O=C(O)/C(S)=C/c1ccc2c(c1)OCO2` [Example 36, (Z)-2-propenoic acid, 3-(5-benzodioxoyl)-2-mercapto], the IC50 in assay [1] (setting [7]) is 1.2 µM.

Turning to `O=C(O)/C(S)=C/c1cccc2ccccc12` [Example 20, (Z)-2-Propenoic Acid, 2-mercapto-3-(1-naphthalenyl)], the IC50 in assay [1] (setting [7]) was 3.6 µM.

On to `O=C(O)/C(S)=C/c1ccc(-c2ccccc2)cc1` [Example 16, (Z)-2-Propenoic Acid, 3-[1,1'-biphenyl)-4-yl-2-mercapto], for which the concentration for half-maximal inhibition (IC50) in assay [1] (setting [7]) is 3 µM.

Usually inhibition stands for the relative decrease from the control value, in per cent. As to `COc1ccc(/C(C)=C(\S)C(=O)O)cc1` [Example 14, (Z)-2-Butanoic Acid, 2-mercapto-3-(4-methoxyphenyl)], in assay [1] (at 200 μM, Table I, read-out: Inhibitory Activity Against Human Calpain I, % inhibition), the inhibition at 200 µM is 66%.

Take `O=C(O)/C(S)=C/c1ccc2c(c1)CCCC2` [Example 44, (Z)-2-propenoic acid, 2-mercapto-3-(5,6,7,8-tetrahydro-2-naphthalenyl)]: in assay [1] (setting [7]), the concentration for half-maximal inhibition (IC50) was determined as 1.7 µM.

Regarding `O=C(O)/C(S)=C/c1cc2ccccc2o1` [Example 31, (Z)-2-Propenoic Acid, 3-(2-benzofuranyl)-2-mercapto], in assay [1] (setting [7]), the IC50 came to 3.2 µM.

In the case of `COc1ccc2cc(/C=C(\S)C(=O)O)ccc2c1` [Example 34, (Z)-2-Propenoic Acid, 2-mercapto-3-(6-methoxy-2-naphthalenyl)], the IC50 in assay [1] (setting [7]) worked out at 2.1 µM.

As to `O=C(O)/C(S)=C/c1ccc2c(c1)Cc1ccccc1-2` [Example 53, 2-Propenoic Acid, 3-(9H-fluoren-2-yl)-2-mercapto], the IC50 in assay [1] (setting [7]) was 1.6 µM.

For `O=C(O)/C(S)=C/c1c[nH]c2ccccc12` [Example 22, (Z)-2-Propenoic Acid, 3-(1H-indol-3-yl)-2-mercapto], the half-maximal inhibitory concentration (IC50) in assay [1] (setting [7]) was 1.3 µM; in assay [1] (setting [8]), 1.3 µM; in assay [4], more than 200 µM; in assay [5] it was 248 µM; in assay [6] it was more than 200 µM. Moreover, in assay [3], the “spectrin breakdown product (SBP) formation, 150 kDa and 145 kDa (in words)” value was “partially blocked SBP formation”.

`O=C(O)/C(S)=C/c1ccc(OCc2ccccc2)cc1` [Example 18, (Z)-2-Propenoic Acid, 2-mercapto-3-[4-(phenylmethoxy)phenyl]]: the 50% inhibitory concentration (IC50) in assay [1] (setting [7]) turned out to be 1.8 µM. In assay [2], the “block of NMDA-induced LDH release (in words)” value is “partially blocked”.

Take `O=C(O)/C(S)=C/c1ccc(CCc2ccccc2)cc1` [Example 47, (Z)-2-Propenoic Acid, 2-mercapto-3-[4-(2-phenylethyl)-phenyl]]: the 50% inhibitory concentration (IC50) in assay [1] (setting [7]) came out at 2.7 µM.

On to `O=C(O)/C(S)=C/c1ccc(F)cc1` [Example 10, 2-Propenoic Acid, 3-(4-fluorophenyl)-2-mercapto], for which the half-maximal inhibitory concentration (IC50) in assay [1] (setting [7]) is 1.2 µM.

As to `O=C(O)/C(S)=C/c1c(-c2ccc(Cl)cc2)[nH]c2ccccc12` [Example 42, (Z)-2-propenoic acid, 3-[2-(4-chlorophenyl)-1H-indol-3-yl]-2-mercapto], the half-inhibitory concentration (IC50) in assay [1] (setting [7]) amounted to 6 µM.

For the molecule `O=C(O)/C(S)=C/c1cc2ccccc2[nH]1` [Example 25, 3-(2-indolyl)-2-mercapto-2-propenoic Acid], the 50% inhibitory concentration (IC50) in assay [1] (setting [7]) was determined as 1.7 µM.

Consider `CCn1c2ccccc2c2cc(/C=C(\S)C(=O)O)ccc21` [Example 12], for which the 50% inhibitory concentration (IC50) in assay [1] (setting [7]) was determined as 1.1 µM.

For the molecule `O=C(O)/C(S)=C/c1ccccc1` [Example 51, 2-Propenoic Acid, 2-mercapto-3-phenyl], the half-maximal inhibitory concentration (IC50) in assay [1] (setting [7]) is 5.9 µM; in assay [1] (setting [8]), 5.9 µM; in assay [4], more than 200 µM; in assay [5], 367 µM; in assay [6], more than 200 µM.

Consider `O=C(O)/C(S)=C/c1cccs1` [Example 29], for which the IC50 in assay [1] (setting [7]) stood at 4 µM.

Take `C[C@]12N[C@H](Cc3ccccc31)c1ccccc12` [MK-801, reference compound]: in assay [3], the “spectrin breakdown product (SBP) formation, 150 kDa and 145 kDa (in words)” value is recorded as “inhibited the SBP formation”. Besides, the “block of NMDA-induced LDH release (in words)” value in assay [2] was “blockable”.

For the molecule `CC(C)(C)c1ccc(/C=C(\S)C(=O)O)cc1` [Example 40, (Z)-2-propenoic Acid, 3-[4-(1,1-dimethylethyl)phenyl]-2-mercapto], in assay [1] (setting [7]), the 50% inhibitory concentration (IC50) is 7.8 µM.

Regarding `O=C(O)/C(S)=C/c1ccc(I)cc1` [Example 8, (Z)-2-propenoic Acid, 3-(4-iodophenyl)-2-mercapto], the half-inhibitory concentration (IC50) in assay [1] was 0.36 µM; in assay [4], more than 500 µM; in assay [5] it was 204 µM; in assay [6], more than 500 µM.
